Series [1] in a line: Pharmacokinetic (PK) assay in mice. To be noted: male, Balb/c, mouse, plasma, po, single intragastric 5 mg/kg. Format: in vivo. A digest of the protocol: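 Male Balb/c mice received a single intragastric dose of 5 mg/10 ml/kg in 0.5% CMC-Na. Orbital blood was taken at 0.5, 1, 2, 4, 6, 8 and 24 h into K2-EDTA; plasma was acetonitrile-precipitated and analyzed by LC-MS/MS, and PK parameters were calculated.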

In series [2] the test system is PI3Kα mutant cancer cells HCC1954 (H1047R). Briefly: Cell Titer-Glo proliferation inhibition, HCC1954. Particulars: Homo sapiens, 48 to 96 hours. Format: cell-based. The method, then:
(§1) Experimental method: The proliferation inhibitory effect of the compounds of the examples on PI3Kα mutant cancer cell lines HCC1954, HGC-27 and MKN1 was determined by Cell Titer-Glo method. The cell lines were cultured in RPMI 1640 medium (Gibco #22400089) containing 10% FBS (Gibco #10091148) and 1% P/S (Hyclone #SV30010) at 37° C. and 5% CO2. Before the experiment, the cells were collected and counted, and then the cell density was adjusted. The cells were inoculated in a white 96-well plate (Corning #3610) at a density of 1000 to 10000 cells/well, and incubated in an incubator at 37° C., 5% CO2 overnight. The compound solution of different concentrations was added, and corresponding vehicle control was set at the same time. The cell plate was further incubated in an incubator at 37° C., 5% CO2 for 48 to 96 hours. The cell plate and its content were equilibrated to room temperature. 20 to 100 μL of Cell Titer-Glo solution (Promega #G7573) was added to each well, and the plate was shaked well and incubated at room temperature in the dark for 5 to 30 minutes. The chemiluminescence value was measured by the BioTek SynergyH1 microplate reader.
(§2) The percentage inhibition data of the well treated by the compounds of the examples was calculated through the vehicle control well on the plate {% inhibition rate=100−(test compound value/vehicle control value)×100}. The IC50 value was calculated by fitting the data of different concentrations and corresponding percentage inhibition rates to a four-parameter nonlinear logic formula with GraphPad prism.
Background: In ATP-based viability assays light output follows the ATP content of the culture.

The target of series [3] is T1, PI3Kβ (Homo sapiens, UniProt P42338).
T1 construct: purchased Carna 11-102
T1 sequence (P42338 whole entry): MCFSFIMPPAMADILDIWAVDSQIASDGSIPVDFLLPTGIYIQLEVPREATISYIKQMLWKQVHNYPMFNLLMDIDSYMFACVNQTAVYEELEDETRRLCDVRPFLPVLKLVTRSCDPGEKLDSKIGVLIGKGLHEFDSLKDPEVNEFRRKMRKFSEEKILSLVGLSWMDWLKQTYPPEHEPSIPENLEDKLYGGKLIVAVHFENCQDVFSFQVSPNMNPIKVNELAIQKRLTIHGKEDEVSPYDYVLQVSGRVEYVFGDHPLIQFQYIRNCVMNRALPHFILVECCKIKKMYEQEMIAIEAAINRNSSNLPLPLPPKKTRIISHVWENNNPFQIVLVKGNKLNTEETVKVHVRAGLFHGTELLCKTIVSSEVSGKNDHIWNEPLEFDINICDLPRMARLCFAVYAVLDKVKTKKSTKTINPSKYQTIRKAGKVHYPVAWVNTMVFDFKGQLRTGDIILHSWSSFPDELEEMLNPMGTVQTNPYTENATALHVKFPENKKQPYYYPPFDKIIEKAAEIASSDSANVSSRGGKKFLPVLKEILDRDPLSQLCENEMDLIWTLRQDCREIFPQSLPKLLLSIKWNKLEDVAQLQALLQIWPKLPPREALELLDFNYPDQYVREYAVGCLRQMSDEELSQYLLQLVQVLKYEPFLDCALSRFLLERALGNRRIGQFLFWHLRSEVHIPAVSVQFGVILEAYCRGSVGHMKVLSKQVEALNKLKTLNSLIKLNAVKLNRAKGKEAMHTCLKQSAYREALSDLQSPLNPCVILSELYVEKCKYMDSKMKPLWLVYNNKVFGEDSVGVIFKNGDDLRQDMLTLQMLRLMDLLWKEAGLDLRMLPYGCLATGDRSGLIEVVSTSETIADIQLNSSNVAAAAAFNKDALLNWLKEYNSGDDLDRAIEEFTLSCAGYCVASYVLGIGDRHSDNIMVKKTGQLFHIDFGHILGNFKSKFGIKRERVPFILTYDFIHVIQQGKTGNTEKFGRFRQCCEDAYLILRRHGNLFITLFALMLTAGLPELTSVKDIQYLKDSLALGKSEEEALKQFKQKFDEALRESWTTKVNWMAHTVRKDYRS
T1 sequence (P27986 whole entry partner): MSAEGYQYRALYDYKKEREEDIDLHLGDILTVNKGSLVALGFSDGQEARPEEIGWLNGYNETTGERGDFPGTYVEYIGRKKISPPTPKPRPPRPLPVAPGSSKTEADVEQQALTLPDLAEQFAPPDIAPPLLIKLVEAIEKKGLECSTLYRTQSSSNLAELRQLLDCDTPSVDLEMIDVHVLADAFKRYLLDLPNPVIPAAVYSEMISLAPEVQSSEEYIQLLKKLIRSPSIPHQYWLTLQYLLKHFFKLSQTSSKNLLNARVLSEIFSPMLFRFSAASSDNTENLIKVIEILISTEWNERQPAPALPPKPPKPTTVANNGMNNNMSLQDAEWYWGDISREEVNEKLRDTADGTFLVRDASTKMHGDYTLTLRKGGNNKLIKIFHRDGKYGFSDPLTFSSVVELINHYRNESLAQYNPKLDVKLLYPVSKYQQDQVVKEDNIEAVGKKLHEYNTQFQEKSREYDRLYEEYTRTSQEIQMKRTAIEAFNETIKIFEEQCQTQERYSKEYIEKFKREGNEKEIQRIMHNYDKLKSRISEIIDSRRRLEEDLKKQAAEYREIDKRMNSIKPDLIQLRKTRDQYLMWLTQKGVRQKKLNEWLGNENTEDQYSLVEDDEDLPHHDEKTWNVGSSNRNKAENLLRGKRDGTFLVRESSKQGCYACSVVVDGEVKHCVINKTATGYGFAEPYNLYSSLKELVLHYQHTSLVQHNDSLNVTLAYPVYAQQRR
Briefly: ADP-Glo lipid kinase assay, PI3Kβ kinase activity. It counts as biochemical. To be noted: 0.4 nM enzyme, 90 min, 100 μM ATP. The essentials: (§3)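 ADP-Glo luminescence measured ADP formed by PI3Kα, β, γ or δ (0.1-2 nM working solution) with PIP2:3PS (50 μM added solution) and ATP in HEPES/MgCl2/NaCl/BSA buffer, 90 to 120 min at room temperature. % inhibition was set against DMSO and no-kinase controls, and IC50 came from a four-parameter fit.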
In general terms: In ADP-Glo the light output rises with the ADP produced.

In series [4] the test system is PI3Kα mutant cancer cells MKN1 (E545K). Put plainly: Cell Titer-Glo proliferation inhibition, MKN1. Particulars: Homo sapiens, MKN-1, 48 to 96 hours. Format: cell-based. The protocol: as §1, §2
Series [5] addresses T2, PI3Kδ (Homo sapiens, UniProt O00329).
T2 construct: purchased Carna 11-103
Put plainly: ADP-Glo lipid kinase assay, PI3Kδ kinase activity. Particulars: 0.1 nM enzyme, 90 min, 100 μM ATP. Format: biochemical. The essentials:
as §3

pIC50: −log10 of the molar value.

T2 sequence (O00329 whole entry): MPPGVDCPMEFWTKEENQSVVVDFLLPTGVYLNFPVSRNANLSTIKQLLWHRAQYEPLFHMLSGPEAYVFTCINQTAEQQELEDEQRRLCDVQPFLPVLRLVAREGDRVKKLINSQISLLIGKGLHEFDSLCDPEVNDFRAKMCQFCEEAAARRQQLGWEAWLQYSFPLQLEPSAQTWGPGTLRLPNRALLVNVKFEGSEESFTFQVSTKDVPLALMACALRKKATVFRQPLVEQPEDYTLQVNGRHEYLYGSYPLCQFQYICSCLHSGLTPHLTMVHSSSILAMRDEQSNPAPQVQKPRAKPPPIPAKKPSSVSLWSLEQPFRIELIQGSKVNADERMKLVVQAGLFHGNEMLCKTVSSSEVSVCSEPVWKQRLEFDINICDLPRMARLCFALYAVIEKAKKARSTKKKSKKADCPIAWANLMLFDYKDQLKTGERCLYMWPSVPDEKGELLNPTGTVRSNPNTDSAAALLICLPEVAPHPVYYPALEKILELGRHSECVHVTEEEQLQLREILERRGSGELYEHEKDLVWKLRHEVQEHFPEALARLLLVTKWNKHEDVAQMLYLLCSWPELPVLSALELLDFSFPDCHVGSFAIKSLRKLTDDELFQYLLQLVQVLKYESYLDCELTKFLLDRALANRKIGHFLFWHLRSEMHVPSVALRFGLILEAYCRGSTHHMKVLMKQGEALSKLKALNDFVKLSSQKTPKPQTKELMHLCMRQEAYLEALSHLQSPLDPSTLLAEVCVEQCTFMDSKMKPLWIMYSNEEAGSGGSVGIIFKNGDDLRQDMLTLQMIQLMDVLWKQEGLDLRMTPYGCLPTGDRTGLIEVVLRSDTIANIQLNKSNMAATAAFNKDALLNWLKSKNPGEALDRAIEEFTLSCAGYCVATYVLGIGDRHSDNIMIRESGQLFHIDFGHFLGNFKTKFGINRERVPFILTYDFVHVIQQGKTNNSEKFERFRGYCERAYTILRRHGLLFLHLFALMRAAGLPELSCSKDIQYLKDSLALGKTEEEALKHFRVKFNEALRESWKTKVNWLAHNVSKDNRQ
T2 sequence (P27986 whole entry partner): as the sequence (P27986 whole entry partner) above

With `C[C@H](Nc1ccc2c(c1)OCCn1cc(N3C(=O)COC[C@H]3C(F)F)nc1-2)C(N)=O` [Example 68, (S)-2-((2-((S)-3-(difluoromethyl)-5-oxomorpholino)-5,6-dihydrobenzo[f]imidazo[1,2-d][1,4]oxazepin-9-yl)amino)propanamide], in series [1] (read-out: Area under curve AUC0-t), the AUC(0-t) stood at 1320 ng·h/mL. Moreover, the AUC(0-inf) in series [1] (read-out: Area under curve AUC0-∞) was found to be 1340 ng·h/mL. For the same compound, the half-life in series [1] (read-out: Half-life t1/2(h) (converted)) is 1.6 h. Also, the MRT in series [1] (read-out: Mean residence time MRT) came to 1.8 h. Also, in series [1] (read-out: Peak time tmax), the Tmax came to 0.5 h. Further, the Cmax in series [1] (read-out: Plasma concentration Cmax) was 641 ng/mL. Also, the pIC50 was 7.15 in series [2], 6.70 in series [3], 6.95 in series [4] and 7.62 in series [5].

As a reminder, the MRT is a mean duration of stay, worked out from the concentration-time curve. By Tmax is commonly meant the time at which the peak concentration occurs. The pIC50 is −log10 of the IC50, conventionally taken in molar units.

These data come from patent US20210221822A1, “TRICYCLIC DERIVATIVES INHIBITOR, PREPARATION METHOD, AND APPLICATIONS THEREOF” (Jiangsu Hansoh Pharmaceutical Group Co., Ltd., priority 2018, published 2021).
